Results reported in patent US7790884B2, “Acylaminopiperidine compound” (Astellas Pharma Inc., priority 2006, dated 2010).
Structures can show the parent of a compound that is named as a salt.

Key:
human CCR4 = target: T1, human CCR4 (Homo sapiens, UniProt P51679); test: [35S]GTPγS binding test via CCR4 (human MDC-stimulated, human CCR4 expressing cell line membrane fraction); type: biochemical; settings: membrane fraction of human CCR4 expressing B300-16 cells, room temperature 1 hour 30 minutes, read-out: inhibitory activity value (IC50)
T1 construct: expressed in transfected cells; membrane fraction used
T1 sequence (P51679 1-360): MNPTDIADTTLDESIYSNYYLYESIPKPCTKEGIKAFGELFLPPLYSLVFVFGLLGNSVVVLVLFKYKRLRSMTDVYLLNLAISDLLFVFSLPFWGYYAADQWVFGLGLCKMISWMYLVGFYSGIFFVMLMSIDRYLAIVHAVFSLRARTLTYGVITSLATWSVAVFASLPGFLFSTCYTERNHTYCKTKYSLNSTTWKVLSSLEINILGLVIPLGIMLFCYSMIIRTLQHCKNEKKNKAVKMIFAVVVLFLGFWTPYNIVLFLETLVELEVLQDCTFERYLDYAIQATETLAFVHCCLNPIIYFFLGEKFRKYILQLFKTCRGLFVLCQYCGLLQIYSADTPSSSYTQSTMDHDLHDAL
Experimental: Action for [^35S]GTPγS Binding Test Via CCR4 (1) Preparation of Human CCR4 Expressing Cell Line A vector (contains a neomycin-resistance gene) in which human CCR4 gene was inserted into downstream of the EF-1α promoter was prepared and transfected into a mouse pre B cell line B300-16 cells by electroporation. These cells were cultured using a G-418-supplemented medium, and a single cell line capable of producing human CCR4 constantly and stably was obtained by the limiting dilution method. (2) Preparation of Human CCR4 Expressing Cell Line Membrane Fraction The human CCR4 expressing cells were recovered, washed with PBS and then suspended in a lysis buffer (10 mM HEPES pH 7.5, 2 mM EDTA, proteinase inhibitor). After allowing the suspension to stand on ice for 15 minutes, the cells were disintegrated using a homogenizer and centrifuged (2000 rpm, 10 min, 4° C.). The supernatant was further subjected to ultracentrifugation (22 K, 30 min, 4° C.), and then the pellet was suspended in PBS and used in the subsequent test. (3) GTPγS Binding Test In a reaction mixture liquid containing 20 mM of HEPES pH 7.05, 100 mM of NaCl, 5 mM of MgCl2, 2 μM of GDP, human MDC, […] of [^35S]GTPγS, 1 mg of wheat germ agglutinin SPA beads and 1 μg of the human CCR4 expressing cell line membrane fraction, respective concentration of the test compound was allowed to undergo the reaction at room temperature for 1 hour and 30 minutes, and the radioactivity was measured.

[1] = test system: Balb/c mice, oxazolone-induced contact dermatitis; test: Mouse oxazolone-induced contact dermatitis (ear swelling); type: in vivo; settings: 30 mg/kg oral administration, swelling 20 hours after oxazolone application
Experimental: 2. Action Upon Mouse Oxazolone-Induced Contact Dermatitis
Balb/c mice (6 to 10 weeks of age, female, Charles River Japan) were sensitized by applying 150 μl of 3% oxazolone/ethanol solution (Sigma Aldrich Japan) to the abdominal part. On the 6th day after the sensitization, 10 μl of 1% oxazolone/ethanol solution was applied to both sides of the right ear. The test drug was administered in 12 hours after the application of the oxazolone solution (test drug administration group), and the solvent alone used in dissolving the test drug was administered to the control group. Thickness of the right auricle was measured before the application and 20 hours thereafter using a […] (Mitsutoyo), and the swelling (thickness increment=measured value after 20 hours−measured value before application) was calculated. The inhibition ratio was calculated by the following formula, by regarding a group to which the oxazolone solution was applied without sensitization as the normal group. In this connection, the above-mentioned test was carried out by 5 animals per group. Inhibition ratio=(swelling of control group−swelling of test drug administration group)×100/(swelling of control group−swelling of normal group)

Structure (SMILES) | IC50 (human CCR4) | inhibitory activity (inhibition of right auricle swelling) [1]
CN(C(=O)[C@@H]1CCCN1)C1CCN(c2nc(Nc3ccc(Cl)cc3F)c3cnn(CC(F)(F)F)c3n2)CC1 [Example 101] | ≤ 100 nM | 
CN(C(=O)[C@@H]1CCCN1C)C1CCN(c2nc(Nc3ccc(Cl)cc3F)c3cc(Br)ccc3n2)CC1 [Example 7] | ≤ 100 nM | 
CCN(C(=O)[C@H]1CCCN1C)C1CCN(c2nc(Nc3ccc(Cl)cc3F)c3cc(F)ccc3n2)CC1 [Example 50] | ≤ 100 nM | 
CN(C(=O)[C@H]1CCCN1C)C1CCN(c2nc(Nc3ccc(Cl)cc3)c3cc(Br)ccc3n2)CC1 [Example 47] | ≤ 100 nM | 
CCN(C(=O)[C@H]1CCCN1C)C1CCN(c2nc(Nc3ccc(Cl)cc3F)c3ccc(C#N)cc3n2)CC1 [Example 24] | ≤ 100 nM | 
CN(C(=O)[C@H]1CCCN1)C1CCN(c2nc(NCc3ccc(Cl)cc3F)c3cnn(CC(F)(F)F)c3n2)CC1 [Example 106] | ≤ 100 nM | 
COc1cc2nc(N3CCC(N(C(=O)[C@@H]4CCCN4C)C4CC4)CC3)nc(Nc3ccc(Cl)cc3F)c2cc1OC [Example 20] | ≤ 100 nM | 
CCN(C(=O)[C@@H]1CCCN1C)C1CCN(c2nc(Nc3ccc(Cl)cc3F)c3cc(F)ccc3n2)CC1 [Example 49] | ≤ 100 nM | 
CN(C(=O)[C@@H]1CCCN1C)C1CCN(c2nc(Nc3ccc(Cl)cc3F)c3ccc(C#N)cc3n2)CC1 [Example 15] | ≤ 100 nM | 

Second part, led by results:

IC50 (human CCR4) | Structure (SMILES) | inhibitory activity (inhibition of right auricle swelling) [1]
≤ 100 nM | COc1cc2nc(N3CCC(N(C)C(=O)[C@@H]4CCCN4)CC3)nc(Nc3ccc(Cl)cc3F)c2cc1F [Example 61] | 
≤ 100 nM | CN(C(=O)[C@H]1CCCN1)C1CCN(c2nc(Nc3ccc(Cl)cc3F)c3cnn(C)c3n2)CC1 [Example 95] | 
≤ 100 nM | CCN(C(=O)[C@H]1CCCN1)C1CCN(c2nc(Nc3ccc(Cl)cc3F)c3cc(Br)ccc3n2)CC1 [Example 56] | 
≤ 100 nM | COc1cc2nc(N3CCC(N(C)C(=O)[C@@H]4CCCN4C)CC3)nc(Nc3ccc(Cl)cc3F)c2cc1OC [Example 1, N-(1-{4-[(4-chloro-2-fluorophenyl)amino]-6,7-dimethoxyquinazolin-2-yl}piperidin-4-yl)-N,1-dimethyl-L-prolinamide dihydrochloride] | good inhibitory activity
≤ 100 nM | COc1cc2nc(N3CCC(N(C(=O)[C@@H]4CCCN4)C4CCC4)CC3)nc(Nc3ccc(Cl)cc3F)c2cc1OC [Example 16] | 
≤ 100 nM | COc1cc2nc(N3CCC(N(C)C(=O)[C@H]4CCCN4)CC3)nc(Nc3ccc(Cl)cc3F)c2cc1OC [Example 10] | 
≤ 100 nM | COc1cc2nc(N3CCC(N(C)C(=O)[C@H]4CCCN4CCO)CC3)nc(Nc3ccc(Cl)cc3F)c2cc1F [Example 77] | 
≤ 100 nM | CCN(C(=O)[C@@H]1CCCN1)C1CCN(c2nc(Nc3ccc(Cl)cc3F)c3ccc(C#N)cc3n2)CC1 [Example 69] | 
≤ 100 nM | COc1cc2nc(N3CCC(N(C)C(=O)[C@H]4CCCN4)CC3)nc(Nc3ccc(F)cn3)c2cc1F [Example 76] | 
≤ 100 nM | COc1cc2nc(N3CCC(N(C)C(=O)[C@H]4CCCN4C)CC3)nc(Nc3ccc(Cl)cc3F)c2cc1OC [Example 19] | 
≤ 100 nM | COc1cc2nc(N3CCC(N(C(=O)[C@H]4CCCCN4)C4CC4)CC3)nc(Nc3ccc(Cl)cc3F)c2cc1OC [Example 90] | 
≤ 100 nM | COc1cc2nc(N3CCC(N(C(=O)[C@H]4CCCN4)C4CCC4)CC3)nc(Nc3ccc(Cl)cc3F)c2cc1OC [Example 17] | 
≤ 100 nM | COc1cc2c(Nc3ccc(Cl)cc3F)nc(N3CCC(N(C)C(=O)[C@H]4CCCN4)CC3)nc2cc1F [Example 35] | 
